# Test results reported in the NIST ThermoML archive (doi:10.1021/je060157s).
# Values joined by “and” are separate entries in the source; they are usually repeats but may differ in a detail not shown here. Equal entries are not always repeated. Numbers after ± are expanded uncertainties.
# Details: Liquid
vapor or sublimation pressure (293.15 K) [kPa],vapor or sublimation pressure (293.33 K) [kPa],vapor or sublimation pressure (293.34 K) [kPa],vapor or sublimation pressure (303.15 K) [kPa],vapor or sublimation pressure (313.15 K) [kPa],vapor or sublimation pressure (323.15 K) [kPa],vapor or sublimation pressure (333.15 K) [kPa],vapor or sublimation pressure (343.15 K) [kPa],vapor or sublimation pressure (343.42 K),vapor or sublimation pressure (353.15 K) [kPa],vapor or sublimation pressure (353.43 K),vapor or sublimation pressure (363.15 K) [kPa],vapor or sublimation pressure (363.43 K) [kPa],Compound,vapor or sublimation pressure (303.35 K),vapor or sublimation pressure (313.37 K),vapor or sublimation pressure (323.39 K),vapor or sublimation pressure (333.39 K)
0.006 ± 0.006,0.009952 ± 0.0035,0.009956 ± 0.0035,0.016 ± 0.007,0.041 ± 0.009,0.095 ± 0.014,0.203 ± 0.021,0.404 ± 0.033,0.515 ± 0.022 kPa and 0.5189 ± 0.022 kPa,0.759 ± 0.055,0.902 ± 0.032 kPa and 0.9053 ± 0.032 kPa,1.352 ± 0.079,1.556 ± 0.041,CC(O)c1ccccc1 (stereo not given) [1-phenylethanol],0.02451 ± 0.0047 kPa and 0.0219 ± 0.0046 kPa,0.06281 ± 0.0061 kPa and 0.06414 ± 0.0062 kPa,0.1472 ± 0.013 kPa and 0.136 ± 0.013 kPa and 0.1419 ± 0.013 kPa,0.2635 ± 0.016 kPa and 0.2649 ± 0.016 kPa
2.333 ± 0.091,,,4.24 ± 0.12,7.376 ± 0.15,12.34 ± 0.22,19.92 ± 0.31,31.17 ± 0.45,,47.38 ± 0.66,,70.18 ± 0.94,,O [water],,,,
